Patent publication US10550102B2, “Indane and indoline derivatives and the use thereof as soluble guanylate cyclase activators” (NOVARTIS AG, priority 2014, dated 2020)
Where two headings read alike, the source gives them in different places.

Molecular target: soluble guanylate cyclase (human GUCYA3 and GUCYB3) overexpressed in CHO cells (Homo sapiens (Human), UniProt Q02108+Q02153)
Assay: CHO cellular assay (cGMP production, Cisbio cGMP HTRF kit)
Assay type: cell-based
Outline: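 Stable CHO-K1 clone 8E10 expressing human sGC (GUCYA3/GUCYB3), 3000 cells/well, exposed 1 h at room temperature to activators in HBSS, 0.1% BSA, 1 mM IBMX, 20 uM ODQ, 0.5% DMSO final. cGMP was measured by HTRF and interpolated from a standard curve. EC50 came from a 4-parameter sigmoidal fit.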

[1] = CHO GUCY clone 8E10, cGMP production, assay buffer with 1 mM IBMX and 20 uM ODQ, 1 h room temperature, minimum quantification limit 0.5 nM (listed 0.5 nM means ≤0.5 nM), read-out: EC50

soluble guanylate cyclase (human GUCYA3 and GUCYB3) overexpressed in CHO cells, sequence (Q02108 whole entry partner): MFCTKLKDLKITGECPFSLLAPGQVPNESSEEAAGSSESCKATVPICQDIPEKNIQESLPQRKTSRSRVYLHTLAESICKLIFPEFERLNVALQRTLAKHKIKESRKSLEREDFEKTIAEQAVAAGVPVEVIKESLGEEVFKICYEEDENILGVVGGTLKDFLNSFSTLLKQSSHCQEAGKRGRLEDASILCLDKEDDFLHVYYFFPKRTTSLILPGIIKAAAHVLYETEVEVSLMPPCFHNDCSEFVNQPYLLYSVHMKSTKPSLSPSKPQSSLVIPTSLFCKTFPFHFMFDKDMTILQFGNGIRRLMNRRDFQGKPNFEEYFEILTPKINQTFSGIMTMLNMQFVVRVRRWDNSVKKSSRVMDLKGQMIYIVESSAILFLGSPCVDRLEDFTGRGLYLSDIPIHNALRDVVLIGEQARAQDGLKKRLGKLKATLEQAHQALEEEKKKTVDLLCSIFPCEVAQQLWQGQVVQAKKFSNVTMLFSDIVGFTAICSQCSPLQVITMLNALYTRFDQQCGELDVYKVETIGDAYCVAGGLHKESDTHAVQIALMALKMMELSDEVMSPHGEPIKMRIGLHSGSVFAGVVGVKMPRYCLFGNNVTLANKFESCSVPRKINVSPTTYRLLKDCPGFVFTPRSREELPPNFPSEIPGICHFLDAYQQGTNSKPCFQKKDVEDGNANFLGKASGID
soluble guanylate cyclase (human GUCYA3 and GUCYB3) overexpressed in CHO cells, sequence (Q02153 whole entry): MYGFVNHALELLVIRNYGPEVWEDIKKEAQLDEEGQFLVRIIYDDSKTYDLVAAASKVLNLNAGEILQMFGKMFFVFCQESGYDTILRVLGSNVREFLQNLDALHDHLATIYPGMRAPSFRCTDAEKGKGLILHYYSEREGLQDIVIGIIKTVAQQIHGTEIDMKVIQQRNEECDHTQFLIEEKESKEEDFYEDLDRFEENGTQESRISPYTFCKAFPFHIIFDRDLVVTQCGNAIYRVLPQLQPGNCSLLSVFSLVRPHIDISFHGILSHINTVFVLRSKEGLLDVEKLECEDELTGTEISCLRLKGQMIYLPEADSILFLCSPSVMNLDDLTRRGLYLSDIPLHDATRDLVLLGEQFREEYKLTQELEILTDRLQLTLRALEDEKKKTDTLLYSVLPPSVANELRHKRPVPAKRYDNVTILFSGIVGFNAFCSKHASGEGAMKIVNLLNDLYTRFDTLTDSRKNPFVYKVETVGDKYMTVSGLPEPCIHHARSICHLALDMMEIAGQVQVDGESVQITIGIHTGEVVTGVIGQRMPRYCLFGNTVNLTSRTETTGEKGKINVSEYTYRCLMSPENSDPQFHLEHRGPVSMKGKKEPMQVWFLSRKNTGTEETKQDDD

Compound	EC50 (EC50 (nM))	EC50 [1]
CCCOC(=O)N1CCC(c2ccc(O[C@H]3CCc4cccc(-c5cccc(-n6ncc(C(=O)O)c6CC)n5)c43)cc2CC)CC1 [Example 64-4, (S)-5-Ethyl-1-(6-(3-(3-ethyl-4-(1-(propoxycarbonyl)piperidin-4-yl)phenoxy)-2,3-dihydro-1H-inden-4-yl)pyridin-2-yl)-1H-pyrazole-4-carboxylic acid]	≤ 0.5 nM	–
CCc1cc(NC2CCc3cccc(-c4cccc(-n5ncc(C(=O)O)c5CC)n4)c32)ccc1C1CCN(C(=O)OC(C)C)CC1 (single isomer, unassigned; (+)) [Example 51a]	–	≤ 0.5 nM
Cc1cc(C2CCN(C(=O)CC3CC3)CC2)ccc1NC1CCc2cccc(-c3cccc(-n4ncc(C(=O)O)c4C)n3)c21 (single isomer, unassigned; (+)) [(+)-46-3, (+)-1-(6-(3-((4-(1-(2-Cyclopropylacetyl)piperidin-4-yl)-2-methylphenyl)amino)-2,3-dihydro-1H-inden-4-yl)pyridin-2-yl)-5-methyl-1H-pyrazole-4-carboxylic acid]	–	1 nM
Cc1cc(C2CCN(C(=O)[C@H](C)O)CC2)ccc1NC1CCc2cccc(-c3cccc(-n4ncc(C(=O)O)c4C)n3)c21 (single isomer, unassigned; (+)) [Example 47a]	–	≤ 0.5 nM
C=C(C)OC(=O)N1CCC(c2ccc(NC3CCc4cccc(-c5cccc(-n6ncc(C(=O)O)c6C)n5)c43)c(C)c2)CC1 (stereo not drawn) [Example 52-6, 5-Methyl-1-(6-(3-((2-methyl-4-(1-((prop-1-en-2-yloxy)carbonyl)piperidin-4-yl)phenyl)amino)-2,3-dihydro-1H-inden-4-yl)pyridin-2-yl)-1H-pyrazole-4-carboxylic acid]	–	1.4 nM
CCc1cc(CN2c3c(cccc3-c3cccc(-n4ncc(C(=O)O)c4CC)n3)CC2C)ccc1C1CCN(C(=O)C2CC2)CC1 (single isomer, unassigned; (+)) [Example 22a, (+)-1-(6-(1-(4-(1-(Cyclopropanecarbonyl)piperidin-4-yl)-3-ethylbenzyl)-2-methylindolin-7-yl)pyridin-2-yl)-6-ethyl-1H-pyrazole-4-carboxylic Acid]	–	1 nM
Cc1cc(C2CCN(C(=O)C3CC3)CC2)ccc1NC1CCc2cccc(-c3cccc(-n4ncc(C(=O)O)c4C)n3)c21 (single isomer, unassigned; (+)) [Example 7a, (+)-1-(6-(3-((4-(1-(cyclopropanecarbonyl)piperidin-4-yl)-2-methylphenyl)amino)-2,3-dihydro-1H-inden-4-yl)pyridin-2-yl)-5-methyl-1H-pyrazole-4-carboxylic acid]	–	≤ 0.5 nM
CCc1cc(O[C@H]2CCc3cccc(-c4cccc(-n5ncc(C(=O)O)c5CC)n4)c32)ccc1C1CCN(C(=O)C(C)CCO)CC1 (single isomer, unassigned) [Example 32a]	–	≤ 0.5 nM
CCc1cc(CN2CCc3cccc(-c4cccc(-n5ncc(C(=O)O)c5CC)n4)c32)ccc1C1CCN(CC(F)(F)F)CC1 [Example 16, 5-Ethyl-1-(6-(1-(3-ethyl-4-(1-(2,2,2-trifluoroethyl)piperidin-4-yl)benzyl)indolin-7-yl)pyridin-2-yl)-1H-pyrazole-4-carboxylic Acid]	–	3.5 nM
Cc1cc(C2CCN(C(=O)C3CC3)CC2)ccc1CC1CCc2cccc(-c3cccc(-n4ncc(C(=O)O)c4C)n3)c21 (single isomer, unassigned; (+)) [Example 37. b). (+), (+)-1-(6-(3-(4-(1-(Cyclopropanecarbonyl)piperidin-4-yl)-2-methylbenzyl)-2,3-dihydro-1H-inden-4-yl)pyridin-2-yl)-5-methyl-1H-pyrazole-4-carboxylic acid]	–	≤ 0.5 nM
CCc1c(C(=O)O)cnn1-c1cccc(-c2cccc3c2C(Cc2ccc(C4CCN(C(=O)[C@H](C)O)CC4)cc2C)CC3)n1 (single isomer, unassigned; (-)) [40-2 (−)]	–	25 nM
CCc1c(C(=O)O)cnn1-c1cccc(-c2cccc3c2C(Cc2ccc(C4CCN(C(=O)C5CC5)CC4)cc2C)CC3)n1 (single isomer, unassigned; (-)) [38-3 (−), (−)-1-(6-(3-(4-(1-(cyclopropanecarbonyl)piperidin-4-yl)-2-methylbenzyl)-2,3-dihydro-1H-inden-4-yl)pyridin-2-yl)-5-ethyl-1H-pyrazole-4-carboxylic acid]	–	33 nM
Cc1nnc(N2CCC(c3ccc(NC4CCc5cccc(-c6cccc(-n7ncc(C(=O)O)c7C)n6)c54)c(C)c3)CC2)o1 (single isomer, unassigned; (-)) [58. b). (−), (−)-5-methyl-1-(6-(3-((2-methyl-4-(1-(5-methyl-1,3,4-oxadiazol-2-yl)piperidin-4-yl)phenyl)amino)-2,3-dihydro-1H-inden-4-yl)pyridin-2-yl)-1H-pyrazole-4-carboxylic acid]	–	3.2 nM
Cc1cc(C2CCN(C(=O)C3CC3)CC2)ccc1OC1CCc2cccc(-c3cccc(-n4ncc(C(=O)O)c4C(F)(F)F)c3)c21 (single isomer, unassigned; (+)) [Example (+)-1. b), (+)-1-(3-(3-(4-(1-(cyclopropanecarbonyl)piperidin-4-yl)-2-methylphenoxy)-2,3-dihydro-1H-inden-4-yl)phenyl)-5-(trifluoromethyl)-1H-pyrazole-4-carboxylic acid]	–	≤ 0.5 nM
Cc1cc(C2CCN(C(=O)CC3CC3)CC2)c(F)cc1NC1CCc2cccc(-c3cccc(-n4ncc(C(=O)O)c4C)n3)c21 (single isomer, unassigned; (+)) [(+)-46-5, (+)-1-(6-(3-((4-(1-(2-Cyclopropylacetyl)piperidin-4-yl)-5-fluoro-2-methylphenyl)amino)-2,3-dihydro-1H-inden-4-yl)pyridin-2-yl)-5-methyl-1H-pyrazole-4-carboxylic acid]	–	1 nM
Cc1cc(C2CCN(C(=O)[C@H](C)O)CC2)ccc1NC1CCc2cccc(-c3cccc(-n4ncc(C(=O)O)c4C)n3)c21 (single isomer, unassigned; (-)) [Example 47b]	–	27 nM

Results, then the molecule that gave them:

EC50 (EC50 (nM))	EC50 [1]	Compound
–	93 nM	CCc1c(C(=O)O)cnn1-c1cccc(-c2cccc3c2C(Cc2ccc(C4CCN(C(=O)OC)CC4)cc2C)CC3)n1 (single isomer, unassigned; (-)) [Example 42. b). (−), (−)-5-ethyl-1-(8-(3-(4-(1-(methoxycarbonyl)piperidin-4-yl)-2-methylbenzyl)-2,3-dihydro-1H-inden-4-yl)pyridin-2-yl)-1H-pyrazole-4-carboxylic acid]
–	≤ 0.5 nM	CCc1cc(NC2CCc3cccc(-c4cccc(-n5ncc(C(=O)O)c5CC)n4)c32)ccc1C1CCN(C(=O)[C@@H](O)CC)CC1 (single isomer, unassigned; (+)) [Example 50a]
–	681 nM	Cc1cc(C2CCN(C(=O)CC3CC3)CC2)c(F)cc1NC1CCc2cccc(-c3cccc(-n4ncc(C(=O)O)c4C)n3)c21 (single isomer, unassigned; (-)) [(−)-46-5, (−)-1-(6-(3-((4-(1-(2-Cyclopropylacetyl)piperidin-4-yl)-5-fluoro-2-methylphenyl)amino)-2,3-dihydro-1H-inden-4-yl)pyridin-2-yl)-5-methyl-1H-pyrazole-4-carboxylic acid]
–	2 nM	Cc1cc(C2CCN(CC(F)(F)F)CC2)ccc1O[C@H]1CCc2cccc(-c3cccc(-n4ncc(C(=O)O)c4C(F)(F)F)n3)c21 [Example 5-4]
–	≤ 0.5 nM	Cc1cc(C2CCN(C(=O)C3CC3)CC2)ccc1NC1COc2cccc(-c3cccc(-n4ncc(C(=O)O)c4C)n3)c21 (single isomer, unassigned; (+)) [Example 34a, (+)-1-(6-(3-((4-(1-(Cyclopropanecarbonyl)piperidin-4-yl)-2-methylphenyl)amino)-2,3-dihydrobenzofuran-4-yl)pyridin-2-yl)-5-methyl-1H-pyrazole-4-carboxylic Acid]
–	≤ 0.5 nM	CCc1c(C(=O)O)cnn1-c1cccc(-c2cccc3c2[C@@H](Oc2ccc(C4CCN(C(=O)C5CC5)CC4)cc2C)CC3)n1 [Example 5-7]
–	1 nM	CCc1cc(NC2CCc3cccc(-c4cccc(-n5ncc(C(=O)O)c5CC)n4)c32)ccc1C1CCN(C(=O)CC2CC2)CC1 (single isomer, unassigned; (+)) [(+)-53-2, (+)-1-(6-(3-((4-(1-(2-cyclopropylacetyl)piperidin-4-yl)-3-ethylphenyl)amino)-2,3-dihydro-1H-inden-4-yl)pyridin-2-yl)-5-ethyl-1H-pyrazole-4-carboxylic acid]
–	19 nM	CCOC(=O)N1CCC(c2ccc(NC3CCc4cccc(-c5cccc(-n6ncc(C(=O)O)c6CC)n5)c43)cc2CC)CC1 (single isomer, unassigned; (-)) [(−)-52-1, (−)-1-(6-(3-((4-(1-(Ethoxycarbonyl)piperidin-4-yl)-3-ethylphenyl)amino)-2,3-dihydro-1H-inden-4-yl)pyridin-2-yl)-5-ethyl-1H-pyrazole-4-carboxylic acid]
–	≤ 0.5 nM	Cc1cc(C2CCN(C(=O)C3CC3)CC2)ccc1NC1CCc2cccc(-c3cccc(-n4ncc(C(=O)O)c4C)c3)c21 (racemic) [Example 11-4, (±)-1-(3-(3-((4-(1-(cyclopropanecarbonyl)piperidin-4-yl)-2-methylphenyl)amino)-2,3-dihydro-1H-inden-4-yl)phenyl)-5-methyl-1H-pyrazole-4-carboxylic acid]
–	≤ 0.5 nM	CCc1cc(NC2COc3cccc(-c4cccc(-n5ncc(C(=O)O)c5CC)n4)c32)ccc1C1CCN(C(=O)C2CC2)CC1 (single isomer, unassigned; (+)) [(+)-36-2, (+)-1-(6-(3-((4-(1-(Cyclopropanecarbonyl)piperidin-4-yl)-3-ethylphenyl)amino)-2,3-dihydrobenzofuran-4-yl)pyridin-2-yl)-5-ethyl-1H-pyrazole-4-carboxylic acid]
–	39 nM	Cc1cc2c(c(-c3cccc(-n4ncc(C(=O)O)c4C(F)(F)F)n3)c1)C(Oc1ccc3c(c1)CCN(Cc1ccccn1)C3)CC2 (stereo not drawn) [Example 5-1]
